Experiments:
[1] = system: Eμ-Myc;p19Arf−/− lymphoma cells; conditions: for single drug cell death: single drug concentration used in the 17AAG-CBL combination
[2] = system: Eμ-Myc;p19Arf−/− lymphoma cells; assay: 8-shRNA signature (GFP competition) with probabilistic nearest neighbors and PCA analysis; format: cell-based, mouse; conditions: shDNAPKcs, LD80-90

| Compound | single drug cell death [1] [%] | effect of diminution of DNAPKcs levels on drug response [2] | effect on 5-FU action [1] | cell death ([1]; leucovorin alone at 1 μM, lymphoma cells) |
| --- | --- | --- | --- | --- |
| C=CCNC1=C2C[C@@H](C)C[C@H](OC)[C@H](O)[C@@H](C)/C=C(\C)[C@H](OC(N)=O)[C@@H](OC)/C=C\C=C(/C)C(=O)NC(=CC1=O)C2=O [17AAG] | ~20 | – | – | – |
| O=C(O)CCCc1ccc(N(CCCl)CCCl)cc1 [CBL, Chlorambucil] | ~20 | resistance | – | – |
| COc1cccc2c1C(=O)c1c(O)c3c(c(O)c1C2=O)C[C@@](O)(C(=O)CO)C[C@@H]3O[C@H]1C[C@H](N)[C@H](O)[C@H](C)O1 [Dox, doxorubicin] | – | sensitivity | – | – |
| Nc1nc2c(c(=O)[nH]1)N(C=O)C(CNc1ccc(C(=O)N[C@@H](CCC(=O)O)C(=O)O)cc1)CN2 (stereo partly drawn) [leucovorin] | – | – | potentiated 5-FU action | no cell death |

From US9670486B2, “RNAi-based method of screening and characterizing drug combinations” (Massachusetts Institute of Technology, priority 2011, dated 2017)
